Measured values: patent US20240368139A1, “NOVEL MODULATORS OF EHMT1 AND EHMT2 AND THERAPEUTIC USE THEREOF” (Tango Therapeutics, Inc., priority 2021, published 2024)

What was measured:
human EHMT2 913-1193 = target: T1, human EHMT2 913-1193 (Homo sapiens, UniProt Q96KQ7); test: EHMT2 enzyme assay on histone peptide substrate (3H-SAM SPA); details: EHMT2 IC50, recombinant human EHMT2 913-1193, histone peptide substrate
T1 sequence (Q96KQ7 913-1193): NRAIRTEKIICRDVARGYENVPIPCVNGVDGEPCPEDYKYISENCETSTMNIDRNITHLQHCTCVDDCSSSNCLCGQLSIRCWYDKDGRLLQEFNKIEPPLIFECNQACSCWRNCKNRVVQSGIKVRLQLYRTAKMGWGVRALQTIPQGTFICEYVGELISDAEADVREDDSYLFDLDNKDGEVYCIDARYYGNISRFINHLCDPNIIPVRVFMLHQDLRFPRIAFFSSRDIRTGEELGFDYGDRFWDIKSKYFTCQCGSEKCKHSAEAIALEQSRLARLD

human EHMT1 982-1266 = target: T2, human EHMT1 982-1266 (Homo sapiens, UniProt Q9H9B1); test: EHMT1 enzyme assay on histone peptide substrate (3H-SAM SPA); details: EHMT1 IC50, recombinant human EHMT1 982-1266, histone peptide substrate
T2 sequence (Q9H9B1 982-1266): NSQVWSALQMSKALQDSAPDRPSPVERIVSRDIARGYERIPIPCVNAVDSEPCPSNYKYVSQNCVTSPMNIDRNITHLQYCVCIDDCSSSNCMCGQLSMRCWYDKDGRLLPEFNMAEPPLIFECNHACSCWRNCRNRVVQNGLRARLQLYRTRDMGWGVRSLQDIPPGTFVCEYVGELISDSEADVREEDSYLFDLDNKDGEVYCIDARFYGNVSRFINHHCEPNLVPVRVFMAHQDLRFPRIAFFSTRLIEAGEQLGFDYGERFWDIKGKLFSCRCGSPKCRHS

hERG potassium channels = hERG potassium channels (Homo sapiens, UniProt Q12809); test: In vitro hERG assay (SyncroPatch whole-cell recording); details: hERG IC50, SyncroPatch, room temperature
Sequence of hERG potassium channels (Q12809 whole entry): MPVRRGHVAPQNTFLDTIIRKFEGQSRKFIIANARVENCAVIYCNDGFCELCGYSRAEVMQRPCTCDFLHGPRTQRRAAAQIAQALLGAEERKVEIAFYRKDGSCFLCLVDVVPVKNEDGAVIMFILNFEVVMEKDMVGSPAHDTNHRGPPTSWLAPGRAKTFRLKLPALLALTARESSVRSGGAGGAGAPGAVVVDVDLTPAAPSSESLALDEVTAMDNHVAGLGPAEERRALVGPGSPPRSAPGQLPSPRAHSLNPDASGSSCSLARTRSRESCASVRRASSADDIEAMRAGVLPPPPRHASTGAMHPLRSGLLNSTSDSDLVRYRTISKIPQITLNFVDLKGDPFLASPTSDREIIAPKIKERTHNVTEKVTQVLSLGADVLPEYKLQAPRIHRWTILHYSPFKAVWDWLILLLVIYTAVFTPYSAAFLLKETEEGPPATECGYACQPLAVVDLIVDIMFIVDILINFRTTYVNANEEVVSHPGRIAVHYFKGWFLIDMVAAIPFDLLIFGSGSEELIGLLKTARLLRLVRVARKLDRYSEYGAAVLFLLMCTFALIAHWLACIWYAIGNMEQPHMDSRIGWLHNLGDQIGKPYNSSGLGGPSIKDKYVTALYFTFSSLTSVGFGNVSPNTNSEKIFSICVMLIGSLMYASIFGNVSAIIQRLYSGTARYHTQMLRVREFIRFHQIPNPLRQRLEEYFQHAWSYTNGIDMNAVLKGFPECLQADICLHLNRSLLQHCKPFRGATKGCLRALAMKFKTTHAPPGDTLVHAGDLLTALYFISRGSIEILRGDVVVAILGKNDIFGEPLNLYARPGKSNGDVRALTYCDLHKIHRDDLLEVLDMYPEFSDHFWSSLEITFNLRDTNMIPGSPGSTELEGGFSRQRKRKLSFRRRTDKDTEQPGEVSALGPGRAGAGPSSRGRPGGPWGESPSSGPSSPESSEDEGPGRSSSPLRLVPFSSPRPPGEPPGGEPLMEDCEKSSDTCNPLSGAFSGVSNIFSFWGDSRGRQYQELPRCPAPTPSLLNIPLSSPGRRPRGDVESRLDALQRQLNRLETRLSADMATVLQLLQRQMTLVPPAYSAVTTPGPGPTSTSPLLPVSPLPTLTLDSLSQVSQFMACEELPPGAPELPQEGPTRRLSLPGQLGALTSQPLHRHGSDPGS

H3K9me2 in HCT116 cells = test: HCT116 H3K9me2 in-cell western assay; format: cell-based; details: Homo sapiens, HCT-116, 72 h, HCT116 cells, 72 hours incubation; read-out: H3K9me2 ICW IC50
In short: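 HCT116 cells (2,000/well) were treated for 72 h at 37° C, 5% CO2, with ten two-fold dilutions from 10 μM in duplicate. After PFA fixation, cells were stained overnight at 4° C with anti-H3K9me2, then with an 800 CW secondary plus DRAQ5.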

Row | Structure (SMILES) | IC50 (human EHMT2 913-1193) | IC50 (human EHMT1 982-1266) | IC50 (H3K9me2 in HCT116 cells) | IC50 (hERG potassium channels)
1 | CNc1cc(C(C)C)nc(Nc2cc3c(c(C4=CCN(C)CCC4)c2)OCC3)n1 [Compound 323] | 100 to 500 nM | 100 to 500 nM | 100 to 500 nM | 2 to 5 µM
2 | COCCNc1cc(C)nc(Nc2cc3c(c(C4=CCN(C)CCC4)c2)OCC3)n1 [Compound 324] | 100 to 500 nM | 100 to 500 nM | 100 to 500 nM | 5 to 10 µM
3 | Cc1cc(NC2CCC2)nc(Nc2cc3c(c(C4=CCNCCC4)c2)OCC3)n1 [Compound 325] | 100 to 500 nM | < 100 nM | 100 to 500 nM | 2 to 5 µM
4 | CNc1cc(C)nc(Nc2cc3c(c(C4=CCNCCC4)c2F)OCC3)c1 [Compound 328] | < 100 nM | < 100 nM | < 100 nM | > 10 µM
5 | CNc1cc(C)nc(Nc2cc3c(c(C4C[C@@H]5CN(C)C[C@@H]5C4)c2)OCCO3)n1 (some centres unmarked) [Compound 329] | 500 to 2000 nM | 100 to 500 nM | 100 to 500 nM | > 10 µM
6 | CNc1cc(C)nc(Nc2cc3c(c(C4=CCNCCC4)c2)CCO3)n1 [Compound 332] | 100 to 500 nM | 100 to 500 nM | 100 to 500 nM | > 10 µM
7 | CNc1ccnc(Nc2cc3c(c(C4=CCNCCC4)c2)OCO3)n1 [Compound 336] | < 100 nM | < 100 nM | < 100 nM | 5 to 10 µM

Now from value to molecule, other results behind:

Row | IC50 (human EHMT2 913-1193) | IC50 (human EHMT1 982-1266) | IC50 (H3K9me2 in HCT116 cells) | Structure (SMILES) | IC50 (hERG potassium channels)
8 | 100 to 500 nM | < 100 nM | < 100 nM | COCCNc1cc(C)nc(Nc2cc3c(c(C4=CCN(C)CCC4)c2F)OCC3)n1 [Compound 290] | > 10 µM
9 | 100 to 500 nM | < 100 nM | 100 to 500 nM | Cc1cc(NCC(F)(F)F)nc(Nc2cc3c(c(C4=CCNCCC4)c2)OCC3)n1 [Compound 322] | 2 to 5 µM
10 | < 100 nM | < 100 nM | < 100 nM | CNc1cc(C(C)C)nc(Nc2cc3c(c(C4=CCNCCC4)c2)OCC3)n1 [Compound 326] | 2 to 5 µM
11 | < 100 nM | < 100 nM | < 100 nM | COCCNc1cc(C)nc(Nc2cc3c(c(C4=CCNCCC4)c2)OCC3)n1 [Compound 327] | > 10 µM
12 | < 100 nM | < 100 nM | < 100 nM | CNc1ccnc(Nc2cc3c(c(C4=CCNCCC4)c2)OCC3)n1 [Compound 330] | > 10 µM
13 | 100 to 500 nM | < 100 nM | < 100 nM | CNc1ccnc(Nc2cc3c(c(C4=CCN(C)CCC4)c2)OCC3)n1 [Compound 331] | > 10 µM
14 | 500 to 2000 nM | 100 to 500 nM | 100 to 500 nM | CNc1cc(C)nc(Nc2cc3c(c(C4C[C@H]5CNC[C@H]5C4)c2)OCCO3)n1 (some centres unmarked) [Compound 334] | > 10 µM
15 | 100 to 500 nM | 100 to 500 nM | 100 to 500 nM | CNc1ccnc(Nc2cc3c(c(C4=CCN(C)CCC4)c2)OCO3)n1 [Compound 335] | 5 to 10 µM
16 | 100 to 500 nM | < 100 nM | 100 to 500 nM | CNc1cc(C)nc(Nc2cc3c(c(C4CCCNCC4)c2)OCCC3)n1 (centres unmarked) [Compound 341] | > 10 µM
17 | 100 to 500 nM | 100 to 500 nM | 100 to 500 nM | CNc1cc(C)nc(Nc2cc3c(c(C4CCCNCC4)c2)OCCO3)n1 (centres unmarked) [Compound 348] | > 10 µM
